Earlier results as cited in patent US20260295054A1, “GLUCAGON-LIKE PEPTIDE-1 RECEPTOR AGONIST VARIANTS AND METHODS THEREOF” (Neuraly, Inc., priority 2023, published 2026).
Like-named read-outs stand apart in the source and are kept apart here.

How the values were obtained:
[1] = tested on: type 2 diabetic subjects; details: for HbA1c reduction from baseline: week 16
[2] = humans

albiglutide
HbA1c reduction from baseline ([1]; 30 mg weekly): 0.87%
HbA1c reduction from baseline ([1]; 50 mg biweekly): 0.79%
HbA1c reduction from baseline ([1]; 100 mg monthly): 0.87%
albiglutide concentrations between monthly doses ([1]; monthly dosing): fall essentially to zero between monthly doses
fasting blood glucose control ([1]; monthly dosing): substantial loss in fasting blood glucose control
nausea and vomiting on dosing days ([1]; monthly vs weekly dosing): significantly greater incidence of nausea and vomiting
serum half-life [2]: ~ 5 days
